Test results as given in patent US7893266B2, “Detection of cancer cells in vitro using sigma-2 receptor ligands as radiotracers” (Washington University, priority 2003, dated 2011).

Assays:
EMT-6 mammary tumors [1] = assay: Comparison with [18F]FLT in tumor-bearing mice; type: in vivo; conditions: 1 hr for [11C]10; 2 hr post-i.v. injection for [76Br]6 and [125I]6i
EMT-6 mammary tumors [2] = assay: Biodistribution study of [76Br]6 (Example 4), low and high dose groups; type: in vivo, Balb/C mice
Text: This compound was studied in mature Balb/C mice that were implanted with EMT-6 mammary tumors. The mice were implanted in the nape of the neck 7 days prior to the study. The biodistribution study consisted of three groups: 1 hr low dose (≈6 μCi), 4 hr low dose and a 4 hr high dose (≈150 μCi). The % ID/g at 1 hr for tumor, brain, fat, blood and liver were 4.0±0.4, 0.25±0.02, 1.1±0.4, 2.1±0.3 and 5.4±0.4, respectively. At 4 hr for the low dose animals the values decreased to 1.2±0.2, 0.15±0.02, 0.3±0.2, 0.82±0.08 and 1.3±0.2, respectively. […] The activity injected into the high dose animals was enough to perform microPET® imaging studies. […] This initial study has shown that this σ2 receptor compound has a high uptake into EMT-6 mammary tumors and can be imaged non-invasively. (MicroPET® is a dedicated PET scanner designed for high resolution imaging of small laboratory animals. It is available from Concorde Microsystems, Inc. 10427 Cogdill Rd, Suite 500 Knoxville, Tenn. 37932 USA.)

Question: Which results are given for `COc1cc2c(cc1OC)CN(CCCCNC(=O)c1cc([76Br])cc(OC)c1OC)CC2` [[^76Br]6]?
Answer: tumor:background ratios compared with [18F]FLT (EMT-6 mammary tumors [1]): higher tumor:background ratios greater than that observed with [^18F]FLT; % ID/g for the 4 hr high dose animals versus low dose (EMT-6 mammary tumors [2]; 4 hr, high dose (≈150 μCi)): not significantly different; % ID/g blood (EMT-6 mammary tumors [2]; 1 hr, low dose (≈6 μCi)): 2.1±0.3 % ID/g; % ID/g blood (EMT-6 mammary tumors [2]; 4 hr, low dose): 0.82±0.08 % ID/g; % ID/g brain (EMT-6 mammary tumors [2]; 1 hr, low dose (≈6 μCi)): 0.25±0.02 % ID/g; % ID/g brain (EMT-6 mammary tumors [2]; 4 hr, low dose): 0.15±0.02 % ID/g; % ID/g fat (EMT-6 mammary tumors [2]; 1 hr, low dose (≈6 μCi)): 1.1±0.4 % ID/g; % ID/g fat (EMT-6 mammary tumors [2]; 4 hr, low dose): 0.3±0.2 % ID/g; % ID/g liver (EMT-6 mammary tumors [2]; 1 hr, low dose (≈6 μCi)): 5.4±0.4 % ID/g; % ID/g liver (EMT-6 mammary tumors [2]; 4 hr, low dose): 1.3±0.2 % ID/g; % ID/g tumor (EMT-6 mammary tumors [2]; 1 hr, low dose (≈6 μCi)): 4.0±0.4 % ID/g; % ID/g tumor (EMT-6 mammary tumors [2]; 4 hr, low dose): 1.2±0.2 % ID/g
